# In patent publication US20070099855A1 (priority 2003, published 2007):
# Assays:
# in vitro = settings: African green monkey
# [1] = tested on: TGEV (Transmissible gastroenteritis Virus); assay: microbe, parasite or virus in culture; format: cell-based
# [2] = tested on: FipV (Feline infectious peritonitis Virus); assay: microbe, parasite or virus in culture; format: cell-based
# CRFK cells = settings: cat
# [3] = tested on: SARS-associated coronavirus; format: cell-based; settings: added to the culture medium; results not shown
# TGEV = format: cell-based, Transmissible gastroenteritis Virus; settings: 500 μM
# [4] = tested on: SARS-associated coronavirus; format: cell-based; settings: Vero cells, 72 hours after infection
# FipV = format: cell-based, Feline infectious peritonitis Virus; settings: 500 μM
# nitrous oxide synthase = format: cell-based
# Vero cells = settings: African green monkey
smiles,measurement,setting,value
NC(=O)c1ncn([C@@H]2O[C@H](CO)[C@@H](O)[C@H]2O)n1 [Ribavirin],CC50,in vitro,> 1000 µg/mL
COC(=O)[C@@]1(C)CC[C@]2(C)CC[C@]3(C)C(=CC(=O)C4[C@@]5(C)CCC(OC6OC(CO)C(O)C(O)C6OC6OC(CO)C(O)C(O)C6O)C(C)(C)C5CC[C@]43C)C2C1 (stereo partly drawn) [Compound 8],CC50,in vitro,44 µM
COC(=O)[C@@]1(C)CC[C@]2(C)CC[C@]3(C)C(=CC(=O)C4[C@@]5(C)CCC(OC6OC(C(=O)NN)C(O)C(O)C6OC6OC(C(=O)NN)C(O)C(O)C6O)C(C)(C)C5CC[C@]43C)C2C1 (stereo partly drawn) [Compound 7],CC50,in vitro,66 µM
CC1(C)C(OC2OC(C(=O)O)C(O)C(O)C2OC2OC(C(=O)O)C(O)C(O)C2O)CC[C@@]2(C)C1CC[C@]1(C)C2C(=O)C=C2C3C[C@@](C)(C(=O)O)CC[C@]3(C)CC[C@]21C.N (stereo partly drawn) [Glycyrrhizin Monoammonium Salt],"inhibition of CPE, TGEV",[1],Partial inhibition
same,EC50,"[1]; Alphacoronavirus 1, CRFK, 48 h, read-out: EC50, TGEV",< 500 µM
same,"inhibition of CPE, FipV",[2],Partial inhibition
same,EC50,"[2]; Alphacoronavirus 1, CRFK, 48 h, read-out: EC50, FipV",< 500 µM
same,CC50,in vitro,625 µM
same,Tox. CRFK cells,CRFK cells,>1 mM
NCCN(CCN)/[N+]([O-])=N/O [DETANONOate],SARS-associated coronavirus replication,[3],replication was inhibited
"O=c1cnn([C@@H]2O[C@H](CO)[C@@H](O)[C@H]2O)c(=O)[nH]1 [Compound 6-azauridine, 6-azauridine]",CC50,in vitro,104 µg/mL
NC(=O)c1[nH]nc([C@@H]2O[C@H](CO)[C@@H](O)[C@H]2O)c1O [Pyrazofurin],CC50,in vitro,52 µg/mL
COc1c(C)c2c(c(O)c1C/C=C(\C)CCC(=O)O)C(=O)OC2 [Mycophenolic acid],CC50,in vitro,> 50 µg/mL
"CC1(C)C(OC2OC(C(=O)O)C(O)C(O)C2OC2OC(C(=O)O)C(O)C(O)C2O)CC[C@]2(C)[C@H]3C(=O)C=C4[C@@H]5C[C@@](C)(C(=O)O)CC[C@]5(C)CC[C@@]4(C)[C@]3(C)CC[C@@H]12 (stereo partly drawn) [Glycyrrhizin, (3-beta,20-beta)-20-Carboxy-11-oxo-30-norolean-12-en-3-yl 2-O-beta-D-glucopyranuronosyl-alpha-D-glucopyranosiduronic acid]","virus replication, TGEV",TGEV,significantly reduced
same,expression of viral antigens,[4]; 1000 mg/L,much lower
same,replication of the virus,[4]; 4000 mg/L,completely blocked replication of the virus
same,"virus replication, FipV",FipV,significantly reduced
same,induction of nitrous oxide synthase,nitrous oxide synthase,induced nitrous oxide synthase
same,CC50,Vero cells,">20,000 mg/L"
same,CC50,in vitro,> 20000 µg/mL
same,cytotoxicity,in vitro,20 to 30%
